Measurements taken from patent publication US6846817B2 (Regents of the University of Minnesota, priority 1999, dated 2005).
Counter-ions that a name gives are not always drawn. Like-named read-outs stand apart in the source and are kept apart here.

Key:
[1] = target: α4β2 nicotinic acetylcholine receptor subtype (Rattus norvegicus, UniProt P09483+P12390); details: cited from earlier work
[2] = target: α4β2 nicotine receptor (Rattus norvegicus, UniProt P09483+P12390); test: Test A: [3H]cytisine binding
Sequence of α4β2 nicotine receptor (P09483 31-630): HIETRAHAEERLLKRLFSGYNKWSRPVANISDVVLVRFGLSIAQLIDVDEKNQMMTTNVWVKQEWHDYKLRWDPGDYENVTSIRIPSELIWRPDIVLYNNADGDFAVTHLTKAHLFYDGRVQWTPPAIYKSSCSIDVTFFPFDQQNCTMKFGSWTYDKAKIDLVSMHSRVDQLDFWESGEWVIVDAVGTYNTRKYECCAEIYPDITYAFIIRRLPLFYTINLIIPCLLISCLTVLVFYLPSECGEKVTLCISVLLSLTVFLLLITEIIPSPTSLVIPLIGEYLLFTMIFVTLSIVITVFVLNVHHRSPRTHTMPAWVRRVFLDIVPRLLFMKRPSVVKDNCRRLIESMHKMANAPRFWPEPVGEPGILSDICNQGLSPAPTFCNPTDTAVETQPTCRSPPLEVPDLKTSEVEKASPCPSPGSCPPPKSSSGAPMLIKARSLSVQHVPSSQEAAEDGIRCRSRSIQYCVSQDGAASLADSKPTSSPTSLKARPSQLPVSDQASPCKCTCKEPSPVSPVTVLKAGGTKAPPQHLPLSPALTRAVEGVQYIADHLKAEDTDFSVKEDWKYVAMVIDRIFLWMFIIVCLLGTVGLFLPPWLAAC
Sequence of α4β2 nicotine receptor (P12390 25-500): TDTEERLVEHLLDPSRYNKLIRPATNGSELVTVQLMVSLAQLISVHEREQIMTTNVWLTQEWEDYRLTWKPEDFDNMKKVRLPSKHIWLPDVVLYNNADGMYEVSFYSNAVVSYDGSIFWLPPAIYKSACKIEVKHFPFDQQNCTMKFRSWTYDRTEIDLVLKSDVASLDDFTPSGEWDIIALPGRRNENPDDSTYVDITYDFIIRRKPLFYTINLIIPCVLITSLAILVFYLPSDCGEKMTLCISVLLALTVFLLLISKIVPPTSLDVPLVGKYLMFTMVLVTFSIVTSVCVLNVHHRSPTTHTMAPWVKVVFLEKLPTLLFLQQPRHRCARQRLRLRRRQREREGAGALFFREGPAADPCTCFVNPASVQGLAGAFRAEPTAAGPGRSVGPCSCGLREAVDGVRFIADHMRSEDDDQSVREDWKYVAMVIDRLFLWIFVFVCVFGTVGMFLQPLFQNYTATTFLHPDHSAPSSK

[3] = target: dopamine transporter (Homo sapiens, UniProt Q01959); test: Binding to dopamine transporter sites
Sequence of dopamine transporter (Q01959 whole entry): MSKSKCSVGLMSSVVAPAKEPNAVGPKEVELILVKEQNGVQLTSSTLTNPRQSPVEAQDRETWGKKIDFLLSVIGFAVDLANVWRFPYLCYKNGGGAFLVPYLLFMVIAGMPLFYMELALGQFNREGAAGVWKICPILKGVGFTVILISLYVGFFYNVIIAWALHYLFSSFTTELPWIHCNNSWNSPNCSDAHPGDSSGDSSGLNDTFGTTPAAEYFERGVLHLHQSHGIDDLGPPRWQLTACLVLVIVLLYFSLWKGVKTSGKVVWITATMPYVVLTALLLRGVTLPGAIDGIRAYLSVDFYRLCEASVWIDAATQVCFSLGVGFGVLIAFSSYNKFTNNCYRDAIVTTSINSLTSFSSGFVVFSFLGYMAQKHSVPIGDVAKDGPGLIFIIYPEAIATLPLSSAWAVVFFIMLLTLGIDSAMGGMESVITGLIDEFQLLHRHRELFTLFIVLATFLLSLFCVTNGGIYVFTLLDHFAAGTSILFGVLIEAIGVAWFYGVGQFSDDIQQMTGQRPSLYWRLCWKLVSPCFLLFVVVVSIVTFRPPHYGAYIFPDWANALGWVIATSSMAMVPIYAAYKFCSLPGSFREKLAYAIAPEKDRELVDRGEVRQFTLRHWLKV

[4] = target: serotonin transporter (Homo sapiens, UniProt P31645); test: Binding to serotonin transporter sites
Sequence of serotonin transporter (P31645 whole entry): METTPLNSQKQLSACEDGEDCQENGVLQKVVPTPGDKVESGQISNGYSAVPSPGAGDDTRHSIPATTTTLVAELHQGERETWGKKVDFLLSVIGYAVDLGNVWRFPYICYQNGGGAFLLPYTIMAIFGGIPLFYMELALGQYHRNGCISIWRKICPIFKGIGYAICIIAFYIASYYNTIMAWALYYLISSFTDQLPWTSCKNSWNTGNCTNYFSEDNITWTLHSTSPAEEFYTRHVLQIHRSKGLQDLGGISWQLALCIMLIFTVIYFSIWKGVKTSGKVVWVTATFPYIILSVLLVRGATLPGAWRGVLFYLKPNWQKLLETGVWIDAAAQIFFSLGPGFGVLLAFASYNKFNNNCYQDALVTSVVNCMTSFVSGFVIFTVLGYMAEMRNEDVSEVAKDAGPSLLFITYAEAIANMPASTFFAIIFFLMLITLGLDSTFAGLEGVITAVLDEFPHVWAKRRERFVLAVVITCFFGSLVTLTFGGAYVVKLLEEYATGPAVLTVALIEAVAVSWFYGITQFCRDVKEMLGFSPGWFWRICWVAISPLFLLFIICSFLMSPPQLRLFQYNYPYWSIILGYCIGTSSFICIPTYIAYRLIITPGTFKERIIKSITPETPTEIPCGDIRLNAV

[5] = tested on: nicotinic acetylcholine receptor (nAChR); test: Test C: 86Rb+ efflux from rat cortical synaptosomes; format: cell-based
[6] = target: dopamine D2 receptors (Homo sapiens, UniProt P14416); test: Binding to dopamine D2 receptors
Sequence of dopamine D2 receptors (P14416 whole entry): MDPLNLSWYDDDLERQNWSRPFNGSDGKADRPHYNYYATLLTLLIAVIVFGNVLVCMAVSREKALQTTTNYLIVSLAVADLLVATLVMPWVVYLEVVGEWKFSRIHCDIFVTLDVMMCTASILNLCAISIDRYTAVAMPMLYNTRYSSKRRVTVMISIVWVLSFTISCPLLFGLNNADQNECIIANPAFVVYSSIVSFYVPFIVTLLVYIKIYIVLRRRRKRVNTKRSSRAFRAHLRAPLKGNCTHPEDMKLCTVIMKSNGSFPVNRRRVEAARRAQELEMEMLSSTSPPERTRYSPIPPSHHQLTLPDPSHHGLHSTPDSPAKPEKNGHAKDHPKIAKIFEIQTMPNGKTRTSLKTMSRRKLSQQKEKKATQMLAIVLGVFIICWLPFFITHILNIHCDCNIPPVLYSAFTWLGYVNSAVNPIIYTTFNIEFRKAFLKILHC

[7] = tested on: nerve-injured mice; test: Test G: Chung model of neuropathic pain, inhibition of tactile sensitivity; format: in vivo, mouse
Method: After hemostasis is confirmed, the wound is sutured with 3-0 silk thread and the skin closed with sterile wound clips. The animals are fully mobile within thirty minutes of cessation of anesthetic. As a control, in a separate group of animals, a sham surgery identical to the above (but without nerve ligation) is performed. Nociception is evaluated by responsiveness to multiple applications (10 per hindpaw) of a single vF filament to the plantar surface of each hind paw. When the stimulus is of sufficient force, the mouse will lick, withdraw and/or shake the paw; this action represents the behavioral endpoint. In nerve-injured mice, a vF filament (#3.61) exerting 3.3 mN of force elicited 66±1.3% responsiveness on the paw ipsilateral to the injury.
Inhibition of Tactile Sensitivity. Varying doses of the compounds are administered to test for inhibition of tactile sensitivity. Percent inhibition is determined relative to the mean number of paw withdrawals (PW) elicited by force and according to the following equation: [formula] Each mouse serves as its own control.
Three groups of animals were used for this experiment. Animals in each group received an intrathecal injection of physiological saline to assess the control response. […] The responses were assessed as described above.

[8] = tested on: Male Wistar rats; details: rat, in vivo
[9] = tested on: striatal synaptosomes; test: Test D: striatal [3H]dopamine release; format: cell-based, rat
[10] = tested on: hippocampal synaptosomes; test: Test E: [3H]ACh release; format: cell-based, rat
Method: Drug-induced release of [^3H]ACh from hippocampal synaptosomes was measured as described by Sullivan et al. (1997). (J. Pharmacol. Exptl. Ther. 283: 235-246). The F4 synaptosomal fraction was washed with Kreb's buffer containing 118.5 mM NaCl, 25 mM NaHCO3, 1.2 mM KCl, 1.2 mM KH2PO4, 2.5 mM CaCl2, 2.5 mM MgCl2, 10 mM glucose gassed with 95% O2/5% CO2 to pH 7.4 and re-suspended at 1 mg protein/mL. The synaptosomes were loaded with [^3H]choline by incubation with 0.8 μM [^3H]choline (2 Ci/mmol). Aliquots of the incubation mixture were then loaded into the perfusion chamber of a Brandell harvester and perfused with Kreb's buffer (37° C.) at a flow rate of 0.25 mL/min. Three-minute fractions were collected and measured for radioactivity. Drugs for study were administered as 20-s pulses. The [^3H]ACh release evoked by study compounds was normalized to (−)-nicotine-evoked release and to the total radioactivity accumulated by synaptosomes. Evoked release of [^3H]ACh from rat hippocampal synaptosomes was measured as the area under the peak above base release. The EC50 value is determined by nonlinear least squares regression analysis.

[11] = target: neuronal [3H]-cytisine binding site (Homo sapiens, UniProt P17787+P43681); details: read-out: Ki, neuronal [3H]-cytisine binding site; cited from earlier work
Sequence of neuronal [3H]-cytisine binding site (P43681 29-627): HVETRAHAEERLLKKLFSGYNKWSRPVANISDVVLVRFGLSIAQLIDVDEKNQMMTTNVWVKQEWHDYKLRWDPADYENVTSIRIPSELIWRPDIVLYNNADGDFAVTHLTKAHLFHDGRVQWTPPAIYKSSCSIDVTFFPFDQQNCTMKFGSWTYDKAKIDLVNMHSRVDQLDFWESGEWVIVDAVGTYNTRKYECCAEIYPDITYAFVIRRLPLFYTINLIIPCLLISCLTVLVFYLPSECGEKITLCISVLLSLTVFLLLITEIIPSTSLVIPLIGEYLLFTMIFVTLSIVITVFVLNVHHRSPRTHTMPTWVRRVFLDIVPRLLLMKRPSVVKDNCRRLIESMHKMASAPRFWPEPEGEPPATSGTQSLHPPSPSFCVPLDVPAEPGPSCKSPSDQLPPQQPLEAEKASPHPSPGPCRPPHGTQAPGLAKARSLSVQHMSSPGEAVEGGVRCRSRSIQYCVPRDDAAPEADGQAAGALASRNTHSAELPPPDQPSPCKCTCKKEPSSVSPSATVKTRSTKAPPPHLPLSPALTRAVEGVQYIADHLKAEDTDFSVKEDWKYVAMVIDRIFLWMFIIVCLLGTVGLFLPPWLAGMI
Sequence of neuronal [3H]-cytisine binding site (P17787 26-502): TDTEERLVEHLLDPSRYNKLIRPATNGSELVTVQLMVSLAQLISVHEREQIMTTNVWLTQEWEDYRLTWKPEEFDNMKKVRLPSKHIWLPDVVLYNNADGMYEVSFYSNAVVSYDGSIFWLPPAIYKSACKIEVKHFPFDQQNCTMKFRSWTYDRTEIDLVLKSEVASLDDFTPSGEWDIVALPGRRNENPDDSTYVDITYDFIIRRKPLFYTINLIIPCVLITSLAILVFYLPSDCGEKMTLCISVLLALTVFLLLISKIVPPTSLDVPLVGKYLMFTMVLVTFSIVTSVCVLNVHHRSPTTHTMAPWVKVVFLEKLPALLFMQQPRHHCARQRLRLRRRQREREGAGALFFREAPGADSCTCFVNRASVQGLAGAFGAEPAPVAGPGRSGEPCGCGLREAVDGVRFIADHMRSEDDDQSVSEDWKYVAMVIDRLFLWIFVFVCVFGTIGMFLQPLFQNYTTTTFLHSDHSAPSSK

[12] = tested on: ovariectomized female rats; test: Test F: object recognition memory test; format: in vivo, rat
[13] = tested on: nicotinic acetylcholine receptor as PC12 cells; details: cited from earlier work
[14] = target: human muscle nicotinic acetylcholine receptor subtype (Homo sapiens, UniProt P02708+P07510+P11230+Q07001); details: cited from earlier work
[15] = target: α7 subtype (Homo sapiens, UniProt P36544); details: read-out: Ki at the α7 subtype; cited from earlier work
Sequence of α7 subtype (P36544 23-502): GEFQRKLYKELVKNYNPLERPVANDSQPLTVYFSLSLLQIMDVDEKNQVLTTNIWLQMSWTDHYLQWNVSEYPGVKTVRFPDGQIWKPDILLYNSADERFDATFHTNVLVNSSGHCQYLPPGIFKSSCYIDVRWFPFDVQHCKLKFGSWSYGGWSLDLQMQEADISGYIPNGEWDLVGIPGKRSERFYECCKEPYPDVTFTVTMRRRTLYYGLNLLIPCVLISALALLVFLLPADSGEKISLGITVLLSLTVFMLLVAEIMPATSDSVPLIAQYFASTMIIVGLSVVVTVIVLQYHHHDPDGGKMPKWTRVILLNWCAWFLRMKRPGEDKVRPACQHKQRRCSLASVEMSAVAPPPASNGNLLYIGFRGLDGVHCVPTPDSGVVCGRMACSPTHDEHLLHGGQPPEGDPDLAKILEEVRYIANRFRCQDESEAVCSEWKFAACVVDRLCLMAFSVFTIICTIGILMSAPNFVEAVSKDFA

[16] = rat brain, compounds tested in racemic form, read-out: Ki-[3H]Cytisine

Sequence of α4β2 nicotinic acetylcholine receptor subtype (P09483 31-630): as the sequence (P09483 31-630) above
Sequence of α4β2 nicotinic acetylcholine receptor subtype (P12390 25-500): as the sequence (P12390 25-500) above

Compound: Cc1ncccc1OC[C@@H]1CCCN1 [ABT-089 (S)]
- less potent than ABT-594 as an inhibitor of [3H]-nicotine binding [1]: about 300 fold

Compound: CN1CCCCC1CC1=Cc2ccc(O)cc2C1 (racemic) [Compound 15, 1-Methyl-2-(6-hydroxyinden-2-yl)methylpiperidine hydrochloride]
- Ki [2, 16]: > 10 µM

Compound: CN1CCCCC1C1CCc2ccccc2O1 (single isomer, unassigned) (as salt: salt) [Compound 1, erythro-2-(1-Methylpiperidin-2-yl)chroman]
- melting point: 164 to 166 °C

Compound: CN1CCCCC1C1CCc2ccc(O)cc2O1 (stereo not drawn) [Compound 3, erythro-7-Hydroxy-2-(1-methylpiperidin-2-yl)chroman]
- Ki [3]: > 10 µM
- Ki [4]: > 10 µM
- potency to stimulate the release of 86Rb+ (in words) ([5]; compound 3 at 1, 5, 10 and 100 μM, compound 1 at 10 and 100 μM, versus S-(−)-nicotine, FIG. 9): comparable potency
- Ki [6]: > 10 µM
- inhibition of tactile sensitivity (in words) ([7]; intrathecal 30, 60 and 100 pmol): dose-dependent inhibition
- inhibition of tactile sensitivity ([7]; intrathecal, highest dose tested 100 pmol, FIG. 13): 60%
- time of death post-injection ([8]; male, Wistar, ip): ≤ 4 min
- lethal effects antagonized by mecamylamine pretreatment [8]: three of the four animals
- observed effect after administration ([8]; ip): severe convulsions
- concentration at which peak effects on [3H]dopamine release are obtained [9]: ~10 µM
- effect on K+-evoked release of [3H]dopamine (in words) [9]: appeared to suppress
- stimulation of [3H]dopamine release (in words) [9]: dose-dependent stimulation
- stimulation of [3H]ACh release (in words) [10]: can stimulate the release

Compound: Cc1cc([C@@H]2CCCN2C)on1 [ABT-418]
- Ki [11]: 0.0045 µM

Compound: CN1CCCC1C1CCc2ccc(O)cc2O1 (single isomer, unassigned) [Compound 11, erythro-7-Hydroxy-2-(1-methylpyrrolidin-2-yl)chroman]
- exploration times versus saline-treated controls (in words) ([12]; exploration phase, 1 μmol/kg/day): not significantly different
- time spent exploring the new object ([12]; recognition phase four hours after exploration, after 7 days s.c. osmotic mini pump, compound 11 1 μmol/kg/day, ARICEPT 1 mg/kg/day): 80.5±5 % (SEM)
- stimulation of [3H]dopamine release (in words) ([9]; FIG. 10, compound 1 at doses of up to 10 μM): stimulates the release
- [3H]Dopamine release ([9]; Table 2 summary in words): High intrinsic activity
- [3H]ACh release ([10]; Table 2 summary in words): No intrinsic activity
- stimulation of [3H]ACh release (in words) ([10]; cortical synaptosomes as worded, FIG. 11): little intrinsic activity

Compound: COc1cc2c(cc1OC)C(=O)C(CC1CCN(Cc3ccccc3)CC1)C2 (centres unmarked) [ARICEPT, reference compound]
- time spent exploring the new object ([12]; rat, in vivo): 60.1±5.4 % (SEM)

Compound: CN1CCC[C@H]1c1cccnc1 [S-(−)-nicotine, reference compound]
- stimulation of [3H]dopamine release (in words) [9]: dose-dependent

Compound: CN1CCCCC1CC1=Cc2ccccc2C1 (racemic) [Compound 13, 1-Methyl-2-(2-indenyl)methylpiperidine hydrochloride]
- Ki [2, 16]: 7.91 µM

Compound: CN1CCCCC1C1CCc2ccc(O)cc2O1 (stereo not drawn) [Compound 4, erythro-7-Hydroxy-2-(1-methylpiperidin-2-yl)chroman]
- 86Rb+ efflux [5]: High intrinsic activity
- [3H]Dopamine release [9]: Low to moderate activity
- [3H]ACh release [10]: High intrinsic activity

Compound: CNCC/C=C/c1cccnc1 [RJR-2403]
- receptor activation (in words) [13]: does not significantly activate
- receptor activation (in words) [14]: does not significantly activate
- Ki [15]: 36 µM

Compound: CN1CCCCC1C1CCc2ccc(O)cc2O1 (single isomer, unassigned) [Compound 8, threo-7-Hydroxy-2-(1-methylpiperidin-2-yl)chroman]
- Ki [3]: > 10 µM
- Ki [4]: > 10 µM
- Ki [6]: > 10 µM

Compound: CN1CCCCC1C1CCc2c(O)cccc2O1 (stereo not drawn) [Compound 5, erythro-5-Hydroxy-2-(1-methylpiperidin-2-yl)chroman]
- Ki [3]: > 10 µM
- Ki [4]: > 10 µM
- Ki [6]: > 10 µM

Compound: CN1CCCCC1C1CCc2ccccc2O1 (single isomer, unassigned) [Compound 1, erythro-2-(1-Methylpiperidin-2-yl)chroman]
- Ki [3]: > 10 µM
- Ki [4]: > 10 µM
- peak response of 86Rb+ release (in words) [5]: could match the peak response of S-(−)-nicotine
- potency to stimulate the release of 86Rb+ (in words) [5]: lower potency
- Ki [6]: > 10 µM
- stimulation of [3H]dopamine release (in words) [9]: failed to stimulate the release

Compound: COc1ccc2c(c1)CC(CC1CCCCN1C)=C2 (racemic) [Compound 14, 1-Methyl-2-(6-methoxyinden-2-yl)methylpiperidine hydrochloride]
- Ki [2, 16]: 8.95 µM

Compound: O=c1cccc2n1C[C@@H]1CNC[C@H]2C1 [Cytisine, reference compound]
- Ki ([2]; Ki-[3H]Cytisine): 0.0009 µM
- Ki ([2]; read-out: Ki-[3H]Cytisine): 0.00278 µM
